Results: patent US5744452A, “γ-L-glutamyl containing immunomodulator compounds and methods therewith” (Wei; Edward T., priority 1995, dated 1998)

Columns and labels:
viral hepatitis = assay: Clinical trials in viral hepatitis; type: in vivo, human; settings: trials in progress
[1] = tested on: patients with prostatitis caused by Chlamydian infection; assay: Trial in prostatitis caused by Chlamydian infection; type: in vivo, human; settings: fourteen treated, 30 control patients
Protocol: In addition to these studies, a trial was conducted using Bestim for the treatment of prostatitis caused by Chlamydian infection. Fourteen patients were treated with Bestim with 30 control patients.

mice = assay: Acute toxicity, single intramuscular dose, mice; type: in vivo
Protocol: To illustrate this point and in preparation for clinical studies, acute and sub-acute toxicity studies were conducted in animals with Bestim according to conditions of good-laboratory practices. Bestim, prepared as a sterile lyophitized powder in ampoules, was dissolved in sterile 0.9% NaCl solution and injected intramuscularly in all experiments.
Acute toxicity: Rodents (mice and rats) and dogs were randomized into groups of equal numbers of males and females. Animals were inspected daily for 14 days after a single dose of Bestim (intramuscular):
Body weight, overall appearance and behavior were evaluated each day and, at the end of two weeks, macroscopic and histopathological examinations of the internal organs (heart, lungs, pleural and peritoneal cavities, muscles, stomach, small and large intestine, liver, spleen, pancreas, kidneys, bladder, thyroid, brain, skin and testes/ovaries) of all animals were conducted.

[2] = tested on: patients with disseminated cancer; assay: Study in patients with disseminated cancer after anticancer therapy; type: in vivo, human; settings: for Adhesion (%) / B-cells / B-cells (%) / Blastransformation, LPS / Blastransformation, PHA / Blastransformation, spontaneous / CD3 / CD3 (%) / CD4 / CD4 (%) / CD4/CD8 / CD8 / CD8 (%) / Cationic proteins / Chemiluminescence, luminol (induced) / Chemiluminescence, luminol (spontaneous) / IgA / IgG / IgM / Myeloperoxidase activity / NBT reduction test / NK activity (%) / NK-cells / NK-cells (%) / Stimulation index, LPS / Stimulation index, PHA: cancer patients
Protocol: Preliminary studies were conducted to characterize the immunomodulatory properties of Bestim in human subjects. The protocol for the human subjects studies were reviewed and approved by a Hospital Committee (Moscow Hospital N-24) and informed consent was obtained from all subjects. All 62 patients received by intramuscular injection 0.1 mg of Bestim dissolved in 1.5 to 2.0 ml of sterile saline, one injection per day for 5 days. Patients participating in the clinical trials were from 2 groups:
The first group consisted of 34 patients with disseminated cancer (29 with colon cancer, 2 with primary brain gliomas, 2 with stage III gastric cancer, 1 with stage IIIb breast cancer). These patients received Bestim therapy after standard anticancer therapy which included surgical treatment and chemotherapy with 5-fluorouracil. It should be noted here that the goal of Bestim therapy in these patients was not to treat the tumor but to correct the immunodeficiency that accompanied this disease and which occurs as a consequence of anticancer therapy. Placebo (saline injections) were administered to 14 subjects.
Laboratory measurements (data in Table 8 to 10) were performed one day before and compared to values obtained three days after injection of Bestim.

murine spleen cells = assay: IL-2 production by Concanavalin A activated murine spleen cells (CTLL-2 cell assay); type: cell-based, CBA mice; settings: for IL-2 production by murine spleen cells: Table 2; for interleukin-2 production by murine spleen cells: Table 6
Protocol: Spleen cells from CBA mice were cultured in tissue culture plates at a 10^6 cells/ml in RPMI-1640 medium supplemented with 10% fetal calf serum, 2 mM L-glutamine, and 80 μg/ml of Gentamycin. 1 μg/ml of Concanavalin A was used to activate basal IL-2 production from murine spleen lymphocytes. Bestim was added to cell cultures at the "0" time. After 36 hours supernatants were collected, centrifuged at 800 xg and IL-2 levels were measured in a CTLL-2 cell assay (Gillis et al., "T-cell Growth Factor: Parameters of Production and Quantitative Assay for Activity," J. Immunol., 120: 2027-2032, 1978). […] However, due to the variations in the method for IL-2 measurements clear dose-response comparisons could not be achieved.
IL-2 production studies have been performed using murine spleen lymphocytes activated with Concanavalin A. Spleen cells from CBA mice were cultured in a tissue culture plates at a 1×10^6 /ml concentration in RPMI-1640 medium supplemented with 10% fetal calf serum, 2 mM L-glutamine,80 μg/ml Gentamycin and 1 μg/ml Concanavalin A as an inducer of basal level IL-2 synthesis. Bestim at various concentration was added to cell cultures at the "0" time. After 36 hours supernatants were collected, centrifuged at 800 xg and used for IL-2 levels determination in a CTLL-2 cell assay (Gillis et al., 1978). IL-2-dependent CTLL-2 cells were grown in RPMI-1640 medium in the presence of 1-2 U/ml recombinant IL-2 as a growth factor. Before assay, cells were washed twice to remove IL-2 from the medium. After this wash tested supernatants were added and cells were incubated for 36 hours. IL-2-induced proliferation was assayed using a ^3 H-thymidine incorporation method.

[3] = mice, single 5000.0 mg/kg intramuscular, 14 days

N[C@@H](CCC(=O)N[C@@H](Cc1c[nH]c2ccccc12)C(=O)O)C(=O)O [Bestim, γ-L-glutamyl-L-tryptophan]
signs and symptoms of viral hepatitis (viral hepatitis): ameliorates the signs and symptoms of viral hepatitis | inflammation in the prostate [1]: inflammation in the prostate was ameliorated | deaths (mice; [3]): No deaths were observed | general appearance, behavior, body weight, hematological, biochemical and physiological indices, macroscopic and histopathological examination of internal organs (mice; [3]): all within normal limits | tested dose relative to expected doses for therapeutic trials (mice; single administration): ~5,000,000 fold | patients who subjectively felt better and were improved in the physician's opinion ([2]; 30 out of 34 cancer patients, 0.1 mg i.m. per day for 5 days): 88% | patients with negative changes in immunological parameters ([2]; cancer patients N = 34): 9% | patients with no significant change in immunological parameters ([2]; cancer patients N = 34): 18% | patients with positive changes in immunological parameters ([2]; cancer patients N = 34): 73% | Adhesion (%) ([2]; Bestim After): 47.6 ± 5.7% | B-cells ([2]; Bestim After): 240 ± 90 10^6 cells/L | B-cells (%) ([2]; Bestim After): 7.1 ± 2.2% | Blastransformation, LPS ([2]; Bestim After): 2738 ± 305 | Blastransformation, PHA ([2]; Bestim After): 21661 ± 5674 | Blastransformation, spontaneous ([2]; Bestim After): 434 ± 73 | CD3 ([2]; Bestim After): 1940 ± 234 10^6 cells/L | CD3 (%) ([2]; Bestim After): 70 ± 4% | CD4 ([2]; Bestim After): 923 ± 114 10^6 cells/L | CD4 (%) ([2]; Bestim After): 35 ± 2% | CD4/CD8 ([2]; Bestim After): 1.16 ± 0.09 | CD8 ([2]; Bestim After): 757 ± 75 10^6 cells/L | CD8 (%) ([2]; Bestim After): 29 ± 2% | Cationic proteins ([2]; Bestim After): 52.4 ± 3.3 Units | Chemiluminescence, luminol (induced) ([2]; Bestim After): 5294 ± 789 | Chemiluminescence, luminol (spontaneous) ([2]; Bestim After): 827 ± 299 | IgA ([2]; Bestim After): 4.1 ± 0.7 g/L | IgG ([2]; Bestim After): 14.4 ± 1.0 g/L | IgM ([2]; Bestim After): 2.2 ± 0.4 g/L | Myeloperoxidase activity ([2]; Bestim After): 479 ± 97 Units | NBT reduction test ([2]; Bestim After): 160 ± 21 Units | NK activity (%) ([2]; Bestim After): 28 ± 1.5% | NK-cells ([2]; Bestim After): 267 ± 32 10^6 cells/L | NK-cells (%) ([2]; Bestim After): 12.0 ± 1.7% | Stimulation index, LPS ([2]; Bestim After): 7.4 ± 0.7 | Stimulation index, PHA ([2]; Bestim After): 48.9 ± 10.3 | Adhesion (%) ([2]; Bestim Before): 49.6 ± 5.9% | B-cells ([2]; Bestim Before): 152 ± 58 10^6 cells/L | B-cells (%) ([2]; Bestim Before): 5.0 ± 1.3% | Blastransformation, LPS ([2]; Bestim Before): 2328 ± 438 | Blastransformation, PHA ([2]; Bestim Before): 5998 ± 1745 | Blastransformation, spontaneous ([2]; Bestim Before): 373 ± 63 | CD3 ([2]; Bestim Before): 1430 ± 183 10^6 cells/L | CD3 (%) ([2]; Bestim Before): 65 ± 4% | CD4 ([2]; Bestim Before): 582 ± 54 10^6 cells/L | CD4 (%) ([2]; Bestim Before): 28 ± 2% | CD4/CD8 ([2]; Bestim Before): 1.04 ± 0.08 | CD8 ([2]; Bestim Before): 572 ± 53 10^6 cells/L | CD8 (%) ([2]; Bestim Before): 25 ± 2% | Cationic proteins ([2]; Bestim Before): 49.9 ± 5.9 Units | Chemiluminescence, luminol (induced) ([2]; Bestim Before): 6991 ± 2101 | Chemiluminescence, luminol (spontaneous) ([2]; Bestim Before): 475 ± 141 | IgA ([2]; Bestim Before): 4.5 ± 0.8 g/L | IgG ([2]; Bestim Before): 14.2 ± 1.0 g/L | IgM ([2]; Bestim Before): 1.9 ± 0.4 g/L | Myeloperoxidase activity ([2]; Bestim Before): 467 ± 87 Units | NBT reduction test ([2]; Bestim Before): 157 ± 19 Units | NK activity (%) ([2]; Bestim Before): 29 ± 1.3% | NK-cells ([2]; Bestim Before): 256 ± 44 10^6 cells/L | NK-cells (%) ([2]; Bestim Before): 13.4 ± 2.3% | Stimulation index, LPS ([2]; Bestim Before): 7.6 ± 0.6 | Stimulation index, PHA ([2]; Bestim Before): 15.9 ± 4.5 | IL-2 production by murine spleen cells (murine spleen cells; peptide 0.001 μg/ml, 36 hours): 159 ± 13 | IL-2 production by murine spleen cells (murine spleen cells; peptide 0.01 μg/ml): 134 ± 8 | IL-2 production by murine spleen cells (murine spleen cells; peptide 0.1 μg/ml): 98 ± 5 | IL-2 production by murine spleen cells (murine spleen cells; peptide 1.0 μg/ml): 157 ± 10 | IL-2 production by murine spleen cells (murine spleen cells; peptide 10 μg/ml): 95 ± 4 | IL-2 production by murine spleen cells (murine spleen cells; peptide 100 μg/ml): 112 ± 3 | interleukin-2 production by murine spleen cells (murine spleen cells; peptide 0.001 μg/ml): 149 ± 2 | interleukin-2 production by murine spleen cells (murine spleen cells; peptide 0.01 μg/ml): 162 ± 4 | interleukin-2 production by murine spleen cells (murine spleen cells; peptide 0.1 μg/ml): 172 ± 9 | interleukin-2 production by murine spleen cells (murine spleen cells; peptide 1.0 μg/ml): 271 ± 11 | interleukin-2 production by murine spleen cells (murine spleen cells; peptide 10 μg/ml): 160 ± 8 | interleukin-2 production by murine spleen cells (murine spleen cells; peptide 100 μg/ml): 186 ± 6 | effect on IL-2 secretion from cells (murine spleen cells; conclusion from Table 2): enhances IL-2 secretion from cells at low doses
